Reference: ChEMBL document CHEMBL1201862, “PubChem BioAssay data set” (2004)
The source made the active and inactive calls.

Key:
Estrogen receptor beta [1] = molecular target: T1, Estrogen receptor beta (Homo sapiens, UniProt Q92731); test: blockers of SRC-3 recruitment to ERβ – biochemical, ELISA, streptavidin-HRP readout, orthogonal assay, confirmation (AID 1060)
Estrogen receptor beta [2] = molecular target: T1, Estrogen receptor beta
Bcl-2-like protein 10 = Bcl-2-like protein 10 (Homo sapiens, UniProt Q9HD36); test: Bcl-B/TR3 peptide binding disruption – biochemical, fluorescence polarization, FITC-TR3 peptide, selectivity assay for Bfl-1 inhibitor project, primary screen (AID 748);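 further: fluorescence polarization from a fluorescein-labelled TR3 peptide binding purified Bcl-B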
Sequence of Bcl-2-like protein 10 (Q9HD36 whole entry): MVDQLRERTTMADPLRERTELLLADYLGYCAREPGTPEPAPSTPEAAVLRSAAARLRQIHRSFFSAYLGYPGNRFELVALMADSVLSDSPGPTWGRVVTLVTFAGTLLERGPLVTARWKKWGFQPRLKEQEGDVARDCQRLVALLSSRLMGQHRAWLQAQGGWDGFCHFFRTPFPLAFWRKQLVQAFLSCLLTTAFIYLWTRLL

[3] = viability loss in THP-1 monocytes – THP-1 cells, cytotoxicity control for Vif-APOBEC3G degradation inhibitor project, dose response (AID 1117359); format: functional; details: THP-1
X-box-binding protein 1 = X-box-binding protein 1 (Homo sapiens, UniProt P17861); format: functional, Cricetulus griseus;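 further: confirmatory dose-response counter-screen serving a CHOP assay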
Sequence of X-box-binding protein 1 (P17861 whole entry): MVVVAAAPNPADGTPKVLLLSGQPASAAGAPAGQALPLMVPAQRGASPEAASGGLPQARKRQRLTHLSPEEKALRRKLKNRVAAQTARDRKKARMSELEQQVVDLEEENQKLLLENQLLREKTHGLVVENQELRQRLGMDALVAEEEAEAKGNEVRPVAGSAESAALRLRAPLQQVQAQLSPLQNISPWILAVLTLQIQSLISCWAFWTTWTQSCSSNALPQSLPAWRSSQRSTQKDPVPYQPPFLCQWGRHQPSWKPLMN

[4] = test system: Streptococcus sp. 'group A'; test: Streptococcus pyogenes SK(-)GAS viability under kanamycin – luminescence, BacTiterGlo, confirmation, counter-screen for streptokinase expression inhibitor project, dose response (AID 1900); format: functional, organism-based
[5] = viability of PTEN-deleted HCT116 cells – cell-based, HCT116 PTEN knockout, dose response (AID 1047); format: functional;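 further: HCT116 colon tumor cells with PTEN knocked out; cells exposed to compound for 60 hours before readout; potency for loss of cell viability measured by luminescence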
Streptokinase A = molecular target: T2, Streptokinase A (Streptococcus pyogenes serotype M1, UniProt P10520); test: viability-normalized secreted streptokinase activity reduction – plasminogen activation absorbance, OD405, dose response (AID 1914); format: functional, Streptococcus pyogenes M1 GAS;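 further: secreted streptokinase activity via plasminogen activation per viability signal from cell pellet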
T2 sequence (P10520 whole entry): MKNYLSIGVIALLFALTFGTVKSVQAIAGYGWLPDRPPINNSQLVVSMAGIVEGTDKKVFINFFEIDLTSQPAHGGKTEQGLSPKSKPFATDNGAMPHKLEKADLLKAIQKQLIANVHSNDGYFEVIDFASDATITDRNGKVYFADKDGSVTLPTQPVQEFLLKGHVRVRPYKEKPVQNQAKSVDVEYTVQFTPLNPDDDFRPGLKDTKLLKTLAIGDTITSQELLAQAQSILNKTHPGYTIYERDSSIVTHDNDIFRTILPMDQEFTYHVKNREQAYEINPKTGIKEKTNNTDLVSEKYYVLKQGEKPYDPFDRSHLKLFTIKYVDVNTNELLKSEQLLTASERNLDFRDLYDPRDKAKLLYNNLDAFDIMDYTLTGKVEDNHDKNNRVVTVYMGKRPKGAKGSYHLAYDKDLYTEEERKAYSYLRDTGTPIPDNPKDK

Streptococcus = test: GAS UMAA2166 growth inhibition – luminescence, BacTiterGlo, counter-screen for streptokinase expression inhibitor project, dose response (AID 1915); format: functional, organism-based;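 further: potency for reduction of bacterial viability or growth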
[6] = viability of HCT116 lacking mutant beta-catenin – cell-based, human colon tumor, dose response (AID 1045); format: functional;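 further: HCT116 colon tumor cells with beta catenin knocked out; cells exposed to compound for 60 hours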
[7] = molecular target: T3, Nucleotide-binding oligomerization domain-containing protein 2 (Homo sapiens, UniProt Q9HC29); test: PubChem AID 2334; format: functional
T3 sequence (Q9HC29 whole entry, the tested form may be a part): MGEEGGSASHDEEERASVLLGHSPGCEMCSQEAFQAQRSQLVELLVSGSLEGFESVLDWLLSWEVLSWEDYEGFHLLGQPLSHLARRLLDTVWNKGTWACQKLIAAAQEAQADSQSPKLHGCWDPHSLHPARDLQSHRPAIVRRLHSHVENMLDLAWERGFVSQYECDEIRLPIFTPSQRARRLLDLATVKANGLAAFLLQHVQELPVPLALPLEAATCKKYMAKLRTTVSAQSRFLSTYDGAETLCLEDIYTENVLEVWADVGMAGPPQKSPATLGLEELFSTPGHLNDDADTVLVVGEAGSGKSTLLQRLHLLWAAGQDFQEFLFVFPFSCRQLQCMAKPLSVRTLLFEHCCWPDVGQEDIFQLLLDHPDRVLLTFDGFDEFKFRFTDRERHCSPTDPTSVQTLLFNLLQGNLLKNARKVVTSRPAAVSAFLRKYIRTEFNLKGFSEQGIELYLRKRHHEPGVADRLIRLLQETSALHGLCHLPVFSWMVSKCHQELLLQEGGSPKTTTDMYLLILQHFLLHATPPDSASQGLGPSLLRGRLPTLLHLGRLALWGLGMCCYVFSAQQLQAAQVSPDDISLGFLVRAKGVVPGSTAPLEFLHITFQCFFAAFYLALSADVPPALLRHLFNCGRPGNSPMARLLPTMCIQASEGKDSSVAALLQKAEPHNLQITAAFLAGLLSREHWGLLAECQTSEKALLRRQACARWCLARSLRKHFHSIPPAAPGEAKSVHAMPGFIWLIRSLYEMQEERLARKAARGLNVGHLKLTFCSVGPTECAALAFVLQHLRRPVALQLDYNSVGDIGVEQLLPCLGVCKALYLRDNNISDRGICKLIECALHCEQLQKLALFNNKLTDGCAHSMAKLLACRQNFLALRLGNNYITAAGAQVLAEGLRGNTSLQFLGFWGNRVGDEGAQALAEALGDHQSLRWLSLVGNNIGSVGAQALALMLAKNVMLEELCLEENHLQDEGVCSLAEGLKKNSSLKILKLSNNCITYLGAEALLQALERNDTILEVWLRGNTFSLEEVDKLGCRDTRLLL

HEK293 [8] = test: cells; format: functional, cell-based; details: Homo sapiens
Tumor necrosis factor = Tumor necrosis factor (Homo sapiens, UniProt P01375); test: analog potency on TNFa NF-kB signaling – cell-based, revised, SAR follow-up (AID 2337); format: functional
Sequence of Tumor necrosis factor (P01375 whole entry): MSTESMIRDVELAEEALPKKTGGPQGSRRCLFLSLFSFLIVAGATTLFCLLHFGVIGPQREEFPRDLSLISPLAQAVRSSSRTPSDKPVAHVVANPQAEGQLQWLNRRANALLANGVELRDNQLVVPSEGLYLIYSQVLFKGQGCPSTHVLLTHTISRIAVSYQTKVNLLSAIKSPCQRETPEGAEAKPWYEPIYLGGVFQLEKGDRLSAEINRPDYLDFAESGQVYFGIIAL

HEK293 [9] = test: NOD2 signaling inhibitors in MDP-stimulated cells, cell-based, uHTS, luminescence (AID 2001); format: functional; details: Homo sapiens
[10] = molecular target: T4, Corticotropin-releasing factor receptor 2/Corticotropin-releasing factor-binding protein (Homo sapiens, UniProt P24387+Q13324); test: Dose Response confirmation of uHTS hits for small molecule antagonists of the CRF-binding protein and CRF-R2 receptor complex.; format: functional; details: read-out: IC50_Mean
T4 sequence (Q13324 whole entry): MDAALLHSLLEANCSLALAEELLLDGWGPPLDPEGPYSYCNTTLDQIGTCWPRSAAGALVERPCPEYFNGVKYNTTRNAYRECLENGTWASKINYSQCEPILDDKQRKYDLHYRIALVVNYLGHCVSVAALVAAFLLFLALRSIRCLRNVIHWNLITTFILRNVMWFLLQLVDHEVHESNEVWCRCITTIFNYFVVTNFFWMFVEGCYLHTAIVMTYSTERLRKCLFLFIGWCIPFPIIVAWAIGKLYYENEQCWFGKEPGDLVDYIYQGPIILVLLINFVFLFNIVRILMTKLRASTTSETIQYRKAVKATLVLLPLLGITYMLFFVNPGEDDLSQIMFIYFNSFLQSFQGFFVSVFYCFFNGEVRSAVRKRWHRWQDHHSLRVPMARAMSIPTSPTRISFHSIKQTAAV
T4 sequence (P24387 whole entry): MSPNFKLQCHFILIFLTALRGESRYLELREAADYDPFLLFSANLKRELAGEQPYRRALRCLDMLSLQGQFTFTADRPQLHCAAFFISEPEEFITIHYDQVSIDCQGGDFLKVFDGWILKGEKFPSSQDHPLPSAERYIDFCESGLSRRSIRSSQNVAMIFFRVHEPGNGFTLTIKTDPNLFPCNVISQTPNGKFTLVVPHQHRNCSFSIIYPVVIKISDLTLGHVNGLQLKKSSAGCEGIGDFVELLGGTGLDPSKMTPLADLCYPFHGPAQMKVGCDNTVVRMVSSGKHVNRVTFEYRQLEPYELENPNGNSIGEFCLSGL

[11] = molecular target: T3, Nucleotide-binding oligomerization domain-containing protein 2; test: inhibition of NOD2-driven NF-kB reporter – cell-based, luminescence, uHTS, HEK293 (AID 1566); format: functional
HEK293 [12] = test: cells; details: Homo sapiens
HEK293 [13] = test: cells; format: functional, cell-based; details: Homo sapiens; remark: listed apart in the source
[14] = molecular target: T5, Heat shock factor protein 1 (Mus musculus, UniProt P38532); test: enhancement of HSF1-driven luciferase signal – cell-based, NIH3T3, luminescence, dose retest, confirmation (AID 435004); format: functional;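 further: stress induced by proteasome inhibitor MG132 added 30 min after compound; luciferase reporter driven by HSF1 response element in NIH3T3 cells; actives raise luminescence as potentiators of the MG132 stress response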
T5 sequence (P38532 whole entry): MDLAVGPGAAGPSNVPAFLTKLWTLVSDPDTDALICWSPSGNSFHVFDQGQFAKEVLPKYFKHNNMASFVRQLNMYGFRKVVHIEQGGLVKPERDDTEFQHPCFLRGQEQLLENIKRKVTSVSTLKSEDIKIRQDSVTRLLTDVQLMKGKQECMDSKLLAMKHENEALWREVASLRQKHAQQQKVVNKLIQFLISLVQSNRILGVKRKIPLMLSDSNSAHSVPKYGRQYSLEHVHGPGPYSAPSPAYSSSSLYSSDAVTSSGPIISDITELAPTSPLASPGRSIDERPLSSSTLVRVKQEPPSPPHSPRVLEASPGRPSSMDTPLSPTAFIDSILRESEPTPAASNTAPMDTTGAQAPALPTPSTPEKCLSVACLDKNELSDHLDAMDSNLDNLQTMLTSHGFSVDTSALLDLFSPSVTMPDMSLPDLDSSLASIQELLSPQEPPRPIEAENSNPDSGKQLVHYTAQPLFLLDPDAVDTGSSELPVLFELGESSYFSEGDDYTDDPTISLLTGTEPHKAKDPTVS

HEK293 [15] = test: inhibition of NOD1-driven NF-kB reporter – cell-based, luminescence, uHTS, primary screen (AID 1578); format: functional; details: Homo sapiens
HEK293 [16] = test: cells; format: functional, cell-based; details: Homo sapiens; remark: listed apart in the source
[17] = molecular target: T6, Nucleotide-binding oligomerization domain-containing protein 1 (Homo sapiens, UniProt Q9Y239); test: blockers of NOD1 pathway activity – revised, SAR follow-up (AID 2333); format: functional
T6 sequence (Q9Y239 whole entry): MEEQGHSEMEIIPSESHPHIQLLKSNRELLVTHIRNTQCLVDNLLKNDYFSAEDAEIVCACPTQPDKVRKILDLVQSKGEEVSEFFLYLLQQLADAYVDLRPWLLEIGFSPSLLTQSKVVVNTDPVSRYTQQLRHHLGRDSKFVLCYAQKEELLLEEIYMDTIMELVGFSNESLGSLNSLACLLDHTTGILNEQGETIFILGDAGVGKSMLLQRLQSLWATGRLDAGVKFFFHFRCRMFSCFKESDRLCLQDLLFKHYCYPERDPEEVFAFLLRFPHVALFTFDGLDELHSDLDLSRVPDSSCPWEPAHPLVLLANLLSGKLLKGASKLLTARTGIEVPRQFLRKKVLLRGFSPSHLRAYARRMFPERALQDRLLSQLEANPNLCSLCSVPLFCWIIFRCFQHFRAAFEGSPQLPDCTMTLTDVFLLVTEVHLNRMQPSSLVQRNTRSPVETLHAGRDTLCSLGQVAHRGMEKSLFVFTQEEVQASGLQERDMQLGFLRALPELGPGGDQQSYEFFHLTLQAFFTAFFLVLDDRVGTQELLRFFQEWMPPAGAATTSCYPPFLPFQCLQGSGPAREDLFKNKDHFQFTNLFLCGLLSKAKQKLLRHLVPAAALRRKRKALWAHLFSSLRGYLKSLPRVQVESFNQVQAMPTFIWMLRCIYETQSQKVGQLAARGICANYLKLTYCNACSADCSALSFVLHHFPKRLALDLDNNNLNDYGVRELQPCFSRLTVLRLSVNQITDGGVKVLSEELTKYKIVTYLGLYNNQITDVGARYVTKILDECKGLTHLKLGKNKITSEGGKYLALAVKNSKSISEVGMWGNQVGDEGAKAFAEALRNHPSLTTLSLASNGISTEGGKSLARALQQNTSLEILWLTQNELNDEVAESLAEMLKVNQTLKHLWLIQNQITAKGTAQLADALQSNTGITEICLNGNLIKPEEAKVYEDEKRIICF

[18] = molecular target: T4, Corticotropin-releasing factor receptor 2/Corticotropin-releasing factor-binding protein; test: activators of CRF receptor 2 with binding protein – uHTS hits, confirmation (AID 602473); format: functional; details: read-out: EC50_Mean
cells = format: functional
[19] = Vero E6 cell cytotoxicity, dose response, cytotoxicity control for non-replicating M. tuberculosis project, secondary assay (AID 492998); format: functional, VeroE6; details: Vero C1008
[20] = HepG2 cell cytotoxicity, dose response, cytotoxicity control for non-replicating M. tuberculosis project (AID 489018); format: functional; details: Mycobacterium tuberculosis

T1 sequence (Q92731 whole entry): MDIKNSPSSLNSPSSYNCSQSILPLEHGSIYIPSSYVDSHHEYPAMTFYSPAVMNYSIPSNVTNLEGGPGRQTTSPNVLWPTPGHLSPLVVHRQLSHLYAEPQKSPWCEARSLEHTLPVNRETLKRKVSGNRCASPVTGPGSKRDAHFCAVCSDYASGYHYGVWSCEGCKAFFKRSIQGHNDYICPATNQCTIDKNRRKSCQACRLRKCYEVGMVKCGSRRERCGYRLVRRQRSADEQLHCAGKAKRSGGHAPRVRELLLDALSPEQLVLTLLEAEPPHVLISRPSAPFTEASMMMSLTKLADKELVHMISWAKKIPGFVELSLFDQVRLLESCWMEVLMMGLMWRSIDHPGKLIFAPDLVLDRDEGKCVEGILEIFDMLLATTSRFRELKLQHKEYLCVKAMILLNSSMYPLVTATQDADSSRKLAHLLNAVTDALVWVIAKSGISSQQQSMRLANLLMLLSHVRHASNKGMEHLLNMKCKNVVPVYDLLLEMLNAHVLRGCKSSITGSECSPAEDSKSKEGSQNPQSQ

O=C(CSc1ccc(Cl)cc1)c1ccco1
IC50 (Estrogen receptor beta [1]): 17.9 µM (not active)
IC50 (Estrogen receptor beta [2]): < 1.56 µM (active)
IC50 (Bcl-2-like protein 10): 25.5 µM (active)
CC50 [3]: > 40 µM (active)

Oc1[nH]c2ccccc2c1N=NC(S)=NCCc1ccccc1
Absolute IC50 (XBP1) (X-box-binding protein 1): 10 µM
EC50 [4]: 4.7 µM (active)
EC50 [5]: 24 µM (active)
EC50 (Streptokinase A): > 150 µM (not active)
EC50 (Streptococcus): 10.9 µM (active)
EC50 [6]: 23 µM (active)

O=C(NC(=S)N1CCN(c2ccc(F)cc2)CC1)c1cccs1
IC50 [7]: > 20 µM (inactive)
IC50 (HEK293 [8]): > 20 µM (inactive)
IC50 (Tumor necrosis factor): > 20 µM (inactive)
IC50 (HEK293 [9]): 10 µM (inactive)
IC50 [10]: > 47.1 µM (inactive)
EC50 [11]: > 20 µM (inactive)
IC50 (HEK293 [12]): > 20 µM (inactive)
IC50 (HEK293 [13]): > 20 µM (inactive)
EC50 [14]: > 260 µM (inactive)
EC50 (HEK293 [15]): > 20 µM (inactive)
IC50 (HEK293 [16]): > 20 µM (inactive)
IC50 [17]: 19.4 µM (active)
EC50 [18]: > 53 µM (inactive)

COc1ccc(CCNc2nc(-c3ccccn3)cs2)cc1OC
IC50 (cells): 1.14 µM (active)
CC50 [19]: 14.7 µM (active)
EC50 [4]: 14.3 µM (active)
EC50 (Streptokinase A): > 150 µM (not active)
EC50 (Streptococcus): > 150 µM (not active)
CC50 [20]: > 20 µM (active)

O=C(C1CC1)N1CCc2cc(S(=O)(=O)N3CCN(c4ccc(Cl)cc4)CC3)ccc21
IC50 [7]: > 20 µM (inactive)
IC50 (Tumor necrosis factor): > 20 µM (inactive)
IC50 (HEK293 [12]): > 20 µM (inactive)
IC50 [17]: > 20 µM (inactive)
